Results reported in patent publication EP4005558A1, “ANTICANCER AGENT AND METHOD FOR PREPARATION OF POROUS SILICA PARTICLE” (Lemonex Inc., priority 2019, dated 2022).

Columns and labels:
[1] = system: MCF-7 cells expressing LC3-GFP; assay: Number of GFP-LC3 puncta (autophagy induction); assay type: cell-based; conditions: MCF-7 expressing LC3-GFP, treated 6 hours in serum-free medium
Procedure: Using lipofectamine 2000, LC3-GFP plasmid was transfected into MCF-7 cells. Transfected MCF-7 was selected with 800 µg/mL of G418 for 3 months. […] 100,000 MCF-7 cells expressing LC3-GFP were seeded.
40 µg of dye-labeled particles and 4 µg of bec1 peptide were mixed, and the cells were treated for 6 hours in a serum-free medium. Cells were fixed with 4% PFA, and nuclei were stained with DAPI. Images were obtained with a Delta-vision microscope, and the number of GFP-LC3 puncta was measured in 100 cells for each group.
LC3 protein is a biomarker involved in the elongation process of autophagosome, and its expression level is known to increase with the progress of autophagosome.

MCF-7 cells = assay: Cytotoxicity, MTT assay; assay type: cell-based; conditions: treatment for 1 day, compared to the non-treated group
Procedure: MCF-7 cells were seeded at 10,000 cells/well in 96-well cell culture plates. After 1 day, different concentrations of each particle (4 to 500 µg/mL) were treated with a serum-containing medium in each well for 1 day. Thereafter, the culture was performed for 4 hours while replacing the above medium with a serum-free medium containing 10 µl of MTT assay kit, and the supernatant was aspirated. DMSO was added to each well to dissolve formazan, and reacted for 1 hour. The absorbance was measured at a wavelength of 570 nm, and the cell viability was calculated as a relative value to that of the untreated group.
Cell viability was compared by MTT assay after treatment with FabBALL and Becl peptide carrying Becl peptide on MCF-7 cells.

CGGTNVFNATFHIWHSGQFGT [Becl peptide]
GFP puncta [1]: very little amount
cell viability (MCF-7 cells): not significantly varied
